Data set [1] in a line: Rate of dissolution in H2O at 25° C. of rebaudioside A polymorph and amorphous forms. It is filed as physicochemical. An excerpt:
The purification of rebaudioside A by crystallization as described above results in the formation of at least three different polymorphs: Form 1: a rebaudioside A hydrate; Form 2: an anhydrous rebaudioside A; Form 3: a rebaudioside A solvate. In addition to the at least three polymorph forms of rebaudioside A, the purification of rebaudioside A may result in the formation of an amorphous form of rebaudioside A, Form 4. The aqueous organic solution and temperature of the purification process influence the resulting polymorph and amorphous forms in the substantially pure rebaudioside A composition. FIGS. 1-5 are exemplary powder x-ray diffraction (XRPD) scans of the polymorph and amorphous forms of rebaudioside A: Form 1 (hydrate), Form 2 (anhydrate), Form 3A (methanol solvate), Form 3B (ethanol solvate), and Form 4 (amorphous), respectively.

Data set [2] is classed as physicochemical. As to the method: A solution of rebaudioside A (>97% pure by HPLC) was prepared in double distilled water (12.5 gm in 50 mL, 25% concentration) by stirring the mixture at 40° C. for 5 minutes. An amorphous form of rebaudioside A was formed by immediately using the clear solution for spray drying with the Lab-Plant spray drier SD-04 instrument (Lab-Plant Ltd., West Yorkshire, U.K.). The solution was fed through the feed pump into the nozzle atomizer which atomized it into a spray of droplets with the help of a constant flow of nitrogen/air. […] This dry powder (11-12 g, H2O 6.74%) was discharged continuously from the drying chamber and was collected in a bottle.

In the case of rebaudioside A [Form 2], the “Rate of dissolution in H2O at 25° C.” value in data set [1] (per 5 minutes) is on record as “Intermediate (<30%/ %/5 minutes”. For rebaudioside A [Form 4], in data set [1] (per 5 minutes), the “Rate of dissolution in H2O at 25° C.” value is “High (>35%/5 %/5 minutes”. Moreover, the “solubility in water at room temperature” value in data set [2] is recorded as more than 35.0%. In the case of rebaudioside A [Form 1], the “Rate of dissolution in H2O at 25° C.” value in data set [1] (per 60 minutes) was “Very low (<0.2%/ %/60 minutes”. Take rebaudioside A [Form 3]: the “Rate of dissolution in H2O at 25° C.” value in data set [1] (per 5 minutes) is on record as “High (>30%/5 %/5 minutes”.

Source of the values: patent US20070116825A1, “Confection with High-Potency Sweetener” (THE COCA-COLA COMPANY, priority 2005, published 2007).
